From PubChem BioAssay AID624434 (The Scripps Research Institute Molecular Screening Center, 2012) come the findings set out here.

The target of this assay is Serine/threonine-protein phosphatase 5 (Homo sapiens) (UniProt P53041). Nature of the assay: single-dose PP5c inhibition check – biochemical, fluorescence, round 5, powder samples, confirmation (AID 624434). The following applies: purified PP5c, OMFP dephosphorylation, at 50 µM, active compounds read high.

Active and inactive are the calls of the source.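 How the source made its calls: active means inhibition of 30% or more at 50 µM; inactive means inhibition under 30% at 50 µM.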

Chain of Serine/threonine-protein phosphatase 5 (Homo sapiens) (P53041 whole entry, looked up): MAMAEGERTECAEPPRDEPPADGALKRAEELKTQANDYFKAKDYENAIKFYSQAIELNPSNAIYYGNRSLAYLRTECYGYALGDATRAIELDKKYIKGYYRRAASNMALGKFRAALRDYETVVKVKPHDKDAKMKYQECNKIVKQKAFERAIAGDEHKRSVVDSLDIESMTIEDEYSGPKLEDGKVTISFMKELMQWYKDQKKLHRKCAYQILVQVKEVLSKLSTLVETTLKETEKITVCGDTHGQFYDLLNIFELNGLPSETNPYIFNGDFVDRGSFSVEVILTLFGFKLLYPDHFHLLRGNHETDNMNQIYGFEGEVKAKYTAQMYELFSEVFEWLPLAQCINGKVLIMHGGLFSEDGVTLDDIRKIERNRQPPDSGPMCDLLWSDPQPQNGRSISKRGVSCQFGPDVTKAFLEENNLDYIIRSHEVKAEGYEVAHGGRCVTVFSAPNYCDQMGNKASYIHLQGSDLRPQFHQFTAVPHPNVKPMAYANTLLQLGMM

In general, inhibition refers to the drop in the measured response relative to a control, in per cent. In the case of `O=C(O)c1n[nH]nc1-c1ccccc1O`, the inhibition is 81.9%.
For `O=C(O)c1n[nH]nc1-c1ccc(F)cc1` the value was 66.5%; for `CCOc1ccccc1-c1n[nH]nc1C(=O)O`, 85.6%; for `O=C(O)c1n[nH]nc1C(=O)O`, 12.4% (inactive).
In the case of `COc1ccccc1-c1n[nH]nc1C(=O)O`, the inhibition is 83.4%.
For `CCc1ccccc1-c1n[nH]nc1C(=O)O` the value was 62.5%; for `CC(C)Oc1ccccc1-c1n[nH]nc1C(=O)O`, 84.9%; for `CNC(=O)c1n[nH]nc1-c1ccccc1`, -1.73% (inactive).
Turning to `O=C(O)c1cnn(-c2ccccc2)n1`, the inhibition was 3.79% (inactive).
For `O=C(O)c1n[nH]nc1-c1cccnc1` the value was 4.32% (inactive); for `COc1ccc(-c2n[nH]nc2C(=O)O)cc1`, 70%.
`NC(=O)c1n[nH]nc1-c1ccccc1`: the inhibition was 5.21% (inactive).
For `N#Cc1n[nH]nc1-c1ccccc1` the value was 2.79% (inactive); for `O=C(O)c1n[nH]nc1-c1ccccc1F`, 81.1%; for `O=Cc1n[nH]nc1-c1ccccc1`, 1.47% (inactive).
For `O=C(O)c1[nH]ccc1-c1ccccc1` the value was 13.8% (inactive).
For `Cc1ccccc1-c1n[nH]nc1C(=O)O` the value was 69.3%.
On to `CN(C)C(=O)c1n[nH]nc1-c1ccccc1`, for which the inhibition is 0.413% (inactive).
For `O=C(O)c1n[nH]nc1-c1cccc(F)c1`, the inhibition is 70.5%.
`O=C(O)c1n[nH]nc1Br`: the inhibition was 10.6% (inactive).
To `c1ccc(-c2n[nH]nc2-c2nn[nH]n2)cc1` belongs 1.15% (inactive); to `O=C(O)c1n[nH]nc1-c1ccccc1-c1ccccc1`, 52.6%.
With `CC(C)c1ccccc1-c1n[nH]nc1C(=O)O`, the inhibition was 47.4%.
For `O=C(O)c1n[nH]nc1-c1ccccn1` the value was 46.8%; for `COc1cccc(-c2n[nH]nc2C(=O)O)c1`, 77.6%.
